Results taken from patent US20100298141A1, “SUBSTITUTED PYRIDINE N-OXIDE HERBICIDES” (E. I. DU PONT DE NEMOURS AND COMPANY, priority 2007, published 2010).

Tests used:
giant foxtail [1] = test: Test A pre-/postemergence greenhouse test; assay type: in vivo, Setaria faberi; conditions: for Plant response rating, Foxtail, Giant: 0 to 100 scale where 0 is no effect and 100 is complete control; for Foxtail, Giant plant response rating: 0 to 100 scale
How it was run: (§1)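 Visual injury ratings, made relative to untreated controls roughly ten days after treatment, cover both preemergence and postemergence application. Compounds in a surfactant-containing non-phytotoxic solvent were sprayed onto the soil surface after sowing and, simultaneously, onto young plants at the one- to two-leaf stage.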

morningglory = test: Test A pre-/postemergence greenhouse test; assay type: in vivo, Ipomoea spp.; conditions: for Plant response rating, Morningglory: 0 to 100 scale where 0 is no effect and 100 is complete control; for Morningglory plant response rating: 0 to 100 scale
How it was run: as §1

redroot pigweed = test: Test A pre-/postemergence greenhouse test; assay type: in vivo, Amaranthus retroflexus; conditions: for Plant response rating, Pigweed: 0 to 100 scale where 0 is no effect and 100 is complete control; for Pigweed plant response rating: 0 to 100 scale
How it was run: as §1

wheat [2] = test: Test A pre-/postemergence greenhouse test; assay type: in vivo, Triticum aestivum; conditions: for Plant response rating, Wheat: 0 to 100 scale where 0 is no effect and 100 is complete control; for Wheat plant response rating: 0 to 100 scale
How it was run: as §1

blackgrass = test: Test C pre-/postemergence test; assay type: in vivo, Alopecurus myosuroides
Text: (§2) Seeds of plant species selected from blackgrass (Alopecurus myosuroides), downy brome (Bromus tectorum), green foxtail (Setaria viridis), Italian ryegrass (Lolium multiflorum), wheat (Triticum aestivum), wild oat (Avena fatua), catchweed bedstraw (Galium aparine), Russian thistle (Salsola kali), […] (Cynodon dactylon), Surinam grass (Brachiaria decumbens), cocklebur (Xanthium strumarium), corn (Zea mays), crabgrass (Digitaria sanguinalis), woolly cupgrass (Eriochloa villosa), giant foxtail (Setaria faberii), Goosegrass (Eleusin indica), johnsongrass (Sorghum halepense), kochia (Kochia scoparia), lambsquarters (Chenopodium album), morningglory (Ipomoea coccinea), eastern black nightshade (Solanum ptycanthum), yellow nutsedge (Cyperus esculentus), pigweed (Amaranthus retroflexus), common ragweed (Ambrosia elation), soybean (Glycine max), common (oilseed) sunflower (Helianthus annuus), and velvetleaf (Abutilon theophrasti) were planted and treated preemergence with test chemicals formulated in a non-phytotoxic solvent mixture which included a surfactant. At the same time, plants selected from these crop and weed species and also winter barley (Hordeum vulgare), canarygrass (Phalaris minor), and chickweed (Stellaria media) were treated with postemergence applications of some of the test chemicals formulated in the same manner. Plants ranged in height from 2 to 18 cm (1- to 4-leaf stage) for postemergence treatments. […] At time of treatment, test pots were flooded to 3 cm above the soil surface, treated by application of test compounds directly to the paddy water, and then maintained at that water depth for the duration of the test. […] A dash (-) response means no test result.

downy brome = test: Test C pre-/postemergence test; assay type: in vivo, Bromus tectorum
Text: as §2

wheat [3] = test: Test C pre-/postemergence test; assay type: in vivo, Triticum aestivum
Text: as §2

wild oat = test: Test C pre-/postemergence test; assay type: in vivo, Avena fatua
Text: as §2

Surinam grass = test: Test C pre-/postemergence test; assay type: in vivo, Brachiaria decumbens
Text: as §2

cocklebur = test: Test C pre-/postemergence test; assay type: in vivo, Xanthium strumarium
Text: as §2

woolly cupgrass = test: Test C pre-/postemergence test; assay type: in vivo, Eriochloa villosa
Text: as §2

giant foxtail [4] = test: Test C pre-/postemergence test; assay type: in vivo, Setaria faberii
Text: as §2

kochia = test: Test C pre-/postemergence test; assay type: in vivo, Kochia scoparia
Text: as §2

common ragweed = test: Test C pre-/postemergence test; assay type: in vivo, Ambrosia elation
Text: as §2

[5] = tested on: common (oilseed) sunflower; test: Test C pre-/postemergence test; assay type: in vivo, Helianthus annuus
Text: as §2

velvetleaf = test: Test C pre-/postemergence test; assay type: in vivo, Abutilon theophrasti
Text: as §2

[6] = Postemergence, 500 g ai/ha, 0 is no effect, 100 is complete control
[7] = Preemergence, 125 g ai/ha, 0 no effect, 100 complete control
[8] = 62 g ai/ha, Preemergence, scale 0 to 100
[9] = 125 g ai/ha, preemergence, scale 0 (no effect) to 100 (complete control)
[10] = Preemergence, 31 g ai/ha, scale 0 to 100 (0 no effect, 100 complete control)
[11] = preemergence, 250 g ai/ha, scale 0 (no effect) to 100 (complete control)

Q: Which results are given for `CCn1nc(C(F)(F)F)c(C[S+]([O-])c2cc(C)cc[n+]2[O-])c1OCC(F)(F)F` (racemic) [Compound 66]?
A: Plant response rating, Foxtail, Giant (giant foxtail [1]; Postemergence, 125 g ai/ha): 80; Foxtail, Giant plant response rating (giant foxtail [1]; [6]): 90; Foxtail, Giant plant response rating (giant foxtail [1]; [7]): 90; Plant response rating, Foxtail, Giant (giant foxtail [1]; Preemergence, 500 g ai/ha): 100; Plant response rating, Morningglory (morningglory; Postemergence, 125 g ai/ha): 60; Morningglory plant response rating (morningglory; [6]): 90; Morningglory plant response rating (morningglory; [7]): 70; Plant response rating, Morningglory (morningglory; Preemergence, 500 g ai/ha): 100; Plant response rating, Pigweed (redroot pigweed; Postemergence, 125 g ai/ha): 60; Pigweed plant response rating (redroot pigweed; [6]): 90; Pigweed plant response rating (redroot pigweed; [7]): 100; Plant response rating, Pigweed (redroot pigweed; Preemergence, 500 g ai/ha): 100; Plant response rating, Wheat (wheat [2]; Postemergence, 125 g ai/ha): 60; Wheat plant response rating (wheat [2]; [6]): 70; Wheat plant response rating (wheat [2]; [7]): 70; Plant response rating, Wheat (wheat [2]; Preemergence, 500 g ai/ha): 100; Blackgrass plant response rating (blackgrass; [8]): 70; Blackgrass plant response rating (blackgrass; [9]): 100; Plant response rating, Blackgrass (blackgrass; [10]): 50; Blackgrass plant response rating (blackgrass; [11]): 100; Bromegrass, Downy plant response rating (downy brome; [8]): 90; Bromegrass, Downy plant response rating (downy brome; [9]): 100; Plant response rating, Bromegrass, Downy (downy brome; [10]): 70; Bromegrass, Downy plant response rating (downy brome; [11]): 100; Wheat plant response rating (wheat [3]; [8]): 85; Wheat plant response rating (wheat [3]; [9]): 98; Plant response rating, Wheat (wheat [3]; [10]): 0; Wheat plant response rating (wheat [3]; [11]): 100; Oat, Wild plant response rating (wild oat; [8]): 85; Oat, Wild plant response rating (wild oat; [9]): 95; Plant response rating, Oat, Wild (wild oat; [10]): 85; Oat, Wild plant response rating (wild oat; [11]): 95; Surinam Grass plant response rating (Surinam grass; [8]): 100; Surinam Grass plant response rating (Surinam grass; [9]): 100; Plant response rating, Surinam Grass (Surinam grass; [10]): 100; Surinam Grass plant response rating (Surinam grass; [11]): 100; Cocklebur plant response rating (cocklebur; [8]): 0; Cocklebur plant response rating (cocklebur; [11]): 85; Cupgrass, Woolly plant response rating (woolly cupgrass; [8]): 85; Cupgrass, Woolly plant response rating (woolly cupgrass; [9]): 100; Cupgrass, Woolly plant response rating (woolly cupgrass; [11]): 100; Foxtail, Giant plant response rating (giant foxtail [4]; [8]): 100; Foxtail, Giant plant response rating (giant foxtail [4]; [9]): 100; Plant response rating, Foxtail, Giant (giant foxtail [4]; [10]): 100; Foxtail, Giant plant response rating (giant foxtail [4]; [11]): 100; Kochia plant response rating (kochia; [8]): 100; Kochia plant response rating (kochia; [9]): 100; Plant response rating, Kochia (kochia; [10]): 100; Kochia plant response rating (kochia; [11]): 100; Ragweed plant response rating (common ragweed; [8]): 100; Plant response rating, Ragweed (common ragweed; [10]): 100; Ragweed plant response rating (common ragweed; [11]): 100; Sunflower plant response rating [5, 8]: 80; Sunflower plant response rating [5, 9]: 80; Plant response rating, Sunflower [5, 10]: 30; Sunflower plant response rating [5, 11]: 98; Velvetleaf plant response rating (velvetleaf; [8]): 90; Velvetleaf plant response rating (velvetleaf; [9]): 95; Plant response rating, Velvetleaf (velvetleaf; [10]): 70; Velvetleaf plant response rating (velvetleaf; [11]): 100
